Test results: patent US20200197480A1, “COMBINATION COMPRISING A PARTICULAR POLYMYXIN” (HELPERBY THERAPEUTICS LIMITED, priority 2017, published 2020)

Assays:
[1] = system: NDM-1 Klebsiella pneumoniae subsp. pneumoniae (BAA2472); test: chequerboard analysis, log phase culture, 24 hours incubation, FICI calculated; assay type: cell-based
Protocol: • Bacterial strain used: BAA2472 strain of NDM-1 Klebsiella pneumoniae subsp. pneumoniae from ATCC®. • Growth of bacteria: Log phase growth of the bacteria was carried out according to methods known in the art. • Compounds and preparation: • (i) HT0160010 was obtained from a commercial source and dissolved in DMSO to make a stock concentration of 10 mg/ml. • (ii) Colistimethate sodium (CMS) was obtained from a commercial source (e.g. Sigma Aldrich) at a concentration of 10 mg/ml.
(§1) Log phase bacterial culture was incubated with HT0160010 and CMS in combination using the chequerboard method known in the art. The overnight culture was diluted with nutrient broth (Oxoid) to 10^7 CFU/ml and 280 μl of the culture was added to each well to make a final concentration of 300 μl. Incubation of the compounds with the bacterial suspension was carried out for 24 hours. The HT0160010 concentration ranged from 128 to 0 μg/ml and the CMS concentration ranged from 16 to 0 μg/ml.
(§2) The effects of the combination were examined by calculating the fractional inhibitory concentration index (FICI) of each combination, as follows: (MIC of drug A, tested in combination)/(MIC of drug A, tested alone)+(MIC of drug B, tested in combination)/(MIC of drug B, tested alone). The interaction of the combination was defined as showing synergy if the FICI was ≤0.5, no interaction if the FICI was ≥0.5 but ≤4.0 and antagonism if the FICI was ≥4.0.
• Bacterial strain used: BAA2472 strain of NDM-1 Klebsiella pneumoniae subsp. pneumoniae from ATCC®. • Growth of bacteria: Log phase growth of the bacteria was carried out according to methods known in the art.
• (i) HT0160009 was obtained from a commercial source and dissolved in DMSO to make a stock concentration of 10 mg/ml. • (ii) Colistimethate sodium (CMS) was obtained from a commercial source (e.g. Sigma Aldrich) at a concentration of 10 mg/ml.
as §1, with “with HT0160009” for “with HT0160010”, “from 256” for “from 128”
The effects of the combination were examined by calculating the FICI in the same manner as Example 1.

[2] = system: NDM-1 Escherichia coli (BAA2469); test: as above; assay type: cell-based; parameters: key: FICI; ≤0.5 synergy, 0.5–4.0 no interaction, ≥4.0 antagonism
Protocol: as §1, §2
• Bacterial strain used: BAA2469 strain of NDM-1 E. coli from ATCC®. • Growth of bacteria: Log phase growth of the bacteria was carried out according to methods known in the art.
Compounds and preparation were the same as Example 1. The effects of the combination were also examined by calculating the FICI in the same manner as Example 1.
as §1, with “with HT0160009” for “with HT0160010”, “from 256” for “from 128”
Compounds and preparation were the same as Example 3. The effects of the combination were also examined by calculating the FICI in the same manner as Example 3.

[3] = CMS 0.015625 μg/ml, HT0160010 0

O=C(c1cc(C(F)(F)F)nc2c(C(F)(F)F)cccc12)C1CCCCN1 (stereo not shown) [HT0160009]
chequerboard results ([1]; HT0160009 4 μg/ml, CMS 0): 0.50 | chequerboard results ([1]; HT0160009 8 μg/ml, CMS 0): 0.50 | chequerboard results ([1]; HT0160009 16 μg/ml, CMS 0): 0.49 | chequerboard results ([1]; HT0160009 32 μg/ml, CMS 0): 0.25 | chequerboard results ([1]; HT0160009 64 μg/ml, CMS 0): 0.17 | chequerboard results ([1]; HT0160009 128 μg/ml, CMS 0): 0.14 | chequerboard results ([1]; HT0160009 256 μg/ml, CMS 0): 0.05 | chequerboard results ([2]; HT0160009 4 μg/ml, CMS 0): 0.61 | chequerboard results ([2]; HT0160009 8 μg/ml, CMS 0): 0.54 | chequerboard results ([2]; HT0160009 16 μg/ml, CMS 0): 0.58 | chequerboard results ([2]; HT0160009 32 μg/ml, CMS 0): 0.32 | chequerboard results ([2]; HT0160009 64 μg/ml, CMS 0): 0.22 | chequerboard results ([2]; HT0160009 128 μg/ml, CMS 0): 0.21 | chequerboard results ([2]; HT0160009 256 μg/ml, CMS 0): 0.05

OC(c1ccccn1)c1cc(C(F)(F)F)nc2c(C(F)(F)F)cccc12 (stereo not shown) [HT0160010, (2,8-bis-trifluoromethyl-quinolin-4-yl)-pyridin-2-yl-methanol]
chequerboard results ([1]; HT0160010 4 μg/ml, CMS 0): 0.54 | chequerboard results ([1]; HT0160010 8 μg/ml, CMS 0): 0.57 | chequerboard results ([1]; HT0160010 16 μg/ml, CMS 0): 0.56 | chequerboard results ([1]; HT0160010 32 μg/ml, CMS 0): 0.56 | chequerboard results ([1]; HT0160010 64 μg/ml, CMS 0): 0.56 | chequerboard results ([1]; HT0160010 128 μg/ml, CMS 0): 0.57 | chequerboard results ([2]; HT0160010 4 μg/ml, CMS 0): 0.62 | chequerboard results ([2]; HT0160010 8 μg/ml, CMS 0): 0.58 | chequerboard results ([2]; HT0160010 16 μg/ml, CMS 0): 0.61 | chequerboard results ([2]; HT0160010 32 μg/ml, CMS 0): 0.62 | chequerboard results ([2]; HT0160010 64 μg/ml, CMS 0): 0.64 | chequerboard results ([2]; HT0160010 128 μg/ml, CMS 0): 0.61

Colistimethate sodium [CMS]
chequerboard results [1, 3]: 0.54 | chequerboard results ([1]; CMS 0.016 μg/ml, HT0160009 0): 0.52 | chequerboard results ([1]; CMS 0.031 μg/ml, HT0160009 0): 0.52 | chequerboard results ([1]; CMS 0.03125 μg/ml, HT0160010 0): 0.53 | chequerboard results ([1]; CMS 0.0625 μg/ml, HT0160010 0): 0.54 | chequerboard results ([1]; CMS 0.063 μg/ml, HT0160009 0): 0.53 | chequerboard results ([1]; CMS 0.125 μg/ml, HT0160009 0): 0.53 | chequerboard results ([1]; CMS 0.125 μg/ml, HT0160010 0): 0.52 | chequerboard results ([1]; CMS 0.25 μg/ml, HT0160009 0): 0.53 | chequerboard results ([1]; CMS 0.25 μg/ml, HT0160010 0): 0.51 | chequerboard results ([1]; CMS 0.5 μg/ml, HT0160009 0): 0.53 | chequerboard results ([1]; CMS 0.5 μg/ml, HT0160010 0): 0.52 | chequerboard results ([1]; CMS 1 μg/ml, HT0160009 0): 0.50 | chequerboard results ([1]; CMS 1 μg/ml, HT0160010 0): 0.41 | chequerboard results ([1]; CMS 2 μg/ml, HT0160009 0): 0.04 | chequerboard results ([1]; CMS 2 μg/ml, HT0160010 0): 0.05 | chequerboard results ([1]; CMS 4 μg/ml, HT0160009 0): 0.04 | chequerboard results ([1]; CMS 4 μg/ml, HT0160010 0): 0.04 | chequerboard results ([1]; CMS 8 μg/ml, HT0160009 0): 0.04 | chequerboard results ([1]; CMS 8 μg/ml, HT0160010 0): 0.05 | chequerboard results ([1]; CMS 16 μg/ml, HT0160009 0): 0.04 | chequerboard results ([1]; CMS 16 μg/ml, HT0160010 0): 0.05 | chequerboard results [2, 3]: 0.59 | chequerboard results ([2]; CMS 0.016 μg/ml, HT0160009 0): 0.62 | chequerboard results ([2]; CMS 0.031 μg/ml, HT0160009 0): 0.64 | chequerboard results ([2]; CMS 0.03125 μg/ml, HT0160010 0): 0.68 | chequerboard results ([2]; CMS 0.0625 μg/ml, HT0160010 0): 0.61 | chequerboard results ([2]; CMS 0.063 μg/ml, HT0160009 0): 0.66 | chequerboard results ([2]; CMS 0.125 μg/ml, HT0160009 0): 0.63 | chequerboard results ([2]; CMS 0.125 μg/ml, HT0160010 0): 0.59 | chequerboard results ([2]; CMS 0.25 μg/ml, HT0160009 0): 0.62 | chequerboard results ([2]; CMS 0.25 μg/ml, HT0160010 0): 0.61 | chequerboard results ([2]; CMS 0.5 μg/ml, HT0160009 0): 0.62 | chequerboard results ([2]; CMS 0.5 μg/ml, HT0160010 0): 0.59 | chequerboard results ([2]; CMS 1 μg/ml, HT0160009 0): 0.56 | chequerboard results ([2]; CMS 1 μg/ml, HT0160010 0): 0.55 | chequerboard results ([2]; CMS 2 μg/ml, HT0160009 0): 0.55 | chequerboard results ([2]; CMS 2 μg/ml, HT0160010 0): 0.54 | chequerboard results ([2]; CMS 4 μg/ml, HT0160009 0): 0.05 | chequerboard results ([2]; CMS 4 μg/ml, HT0160010 0): 0.18 | chequerboard results ([2]; CMS 8 μg/ml, HT0160009 0): 0.05 | chequerboard results ([2]; CMS 8 μg/ml, HT0160010 0): 0.05 | chequerboard results ([2]; CMS 16 μg/ml, HT0160009 0): 0.05 | chequerboard results ([2]; CMS 16 μg/ml, HT0160010 0): 0.05
